Paper PMC7180948, “New Insights into 4-Anilinoquinazolines as Inhibitors of Cardiac Troponin I–Interacting Kinase (TNNi3K)” (Molecules, 2020)

Key:
Experiment in all cases: biochemical
Design in all cases: KINOMEscan competition binding panel (Eurofins DiscoverX), single concentration, percent inhibition
Conditions in all cases: read-out: 15 at 1 µM % inhibition
ULK1 = ULK1 (Homo sapiens, UniProt O75385)
Procedure, shortened: (§1)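 KINOMEscan binding panel of >400 kinases, run by Eurofins DiscoverX, with compounds tested at a single concentration of 1 µM.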

YSK1 = target: T1, YSK1 (Homo sapiens, UniProt O00506)
T1 construct: gene STK25
T1 sequence (O00506 whole entry): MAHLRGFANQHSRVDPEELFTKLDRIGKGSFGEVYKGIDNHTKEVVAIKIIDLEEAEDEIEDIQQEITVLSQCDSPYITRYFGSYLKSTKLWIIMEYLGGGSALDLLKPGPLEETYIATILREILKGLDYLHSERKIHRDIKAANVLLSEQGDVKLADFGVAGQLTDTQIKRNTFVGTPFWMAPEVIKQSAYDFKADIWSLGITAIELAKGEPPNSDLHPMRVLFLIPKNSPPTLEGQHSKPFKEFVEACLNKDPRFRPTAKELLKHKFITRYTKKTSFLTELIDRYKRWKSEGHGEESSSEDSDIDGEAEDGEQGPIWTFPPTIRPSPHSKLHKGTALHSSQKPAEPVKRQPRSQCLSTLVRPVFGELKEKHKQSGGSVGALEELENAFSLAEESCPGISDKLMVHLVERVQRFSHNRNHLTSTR
Procedure, shortened: as §1

[1] = target: T2, RSK4(Kin.Dom.1-N-terminal) (Homo sapiens, UniProt Q9UK32)
T2 construct: gene RPS6KA6; Kin.Dom.1-N-terminal
Procedure, shortened: as §1

FLT3(ITD,F691L) = FLT3(ITD,F691L) (Homo sapiens, UniProt P36888, F691L/ITD)
Procedure, shortened: as §1

FGFR3(G697C) = FGFR3(G697C) (Homo sapiens, UniProt P22607, G697C)
Chain of FGFR3(G697C) (P22607 whole entry G697C): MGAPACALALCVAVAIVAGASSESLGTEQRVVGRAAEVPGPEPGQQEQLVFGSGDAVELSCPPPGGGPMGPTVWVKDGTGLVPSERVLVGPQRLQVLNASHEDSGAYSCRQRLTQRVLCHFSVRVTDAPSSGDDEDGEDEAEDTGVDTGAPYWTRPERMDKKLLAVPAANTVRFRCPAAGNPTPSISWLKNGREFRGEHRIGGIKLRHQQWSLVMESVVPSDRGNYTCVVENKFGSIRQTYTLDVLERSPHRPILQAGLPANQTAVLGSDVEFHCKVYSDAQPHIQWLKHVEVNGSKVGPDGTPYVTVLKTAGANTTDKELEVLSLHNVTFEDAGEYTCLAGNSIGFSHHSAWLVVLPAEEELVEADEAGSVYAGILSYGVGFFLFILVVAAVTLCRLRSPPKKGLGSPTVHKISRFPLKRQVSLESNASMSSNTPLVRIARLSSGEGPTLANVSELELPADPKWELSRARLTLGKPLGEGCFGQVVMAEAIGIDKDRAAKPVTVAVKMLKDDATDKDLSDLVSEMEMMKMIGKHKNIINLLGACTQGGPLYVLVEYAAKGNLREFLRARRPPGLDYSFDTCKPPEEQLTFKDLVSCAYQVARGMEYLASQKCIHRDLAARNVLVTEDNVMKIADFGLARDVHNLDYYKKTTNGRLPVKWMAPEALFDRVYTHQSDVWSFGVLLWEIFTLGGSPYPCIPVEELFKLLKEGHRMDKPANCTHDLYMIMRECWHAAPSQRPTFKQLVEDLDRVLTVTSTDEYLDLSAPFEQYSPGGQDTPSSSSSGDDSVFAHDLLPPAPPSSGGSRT
Procedure, shortened: as §1

HIPK4 = HIPK4 (Homo sapiens, UniProt Q8NE63)
Procedure, shortened: as §1

ADCK3 = target: T3, ADCK3 (Homo sapiens, UniProt Q8NI60)
T3 construct: gene COQ8A
T3 sequence (Q8NI60 whole entry): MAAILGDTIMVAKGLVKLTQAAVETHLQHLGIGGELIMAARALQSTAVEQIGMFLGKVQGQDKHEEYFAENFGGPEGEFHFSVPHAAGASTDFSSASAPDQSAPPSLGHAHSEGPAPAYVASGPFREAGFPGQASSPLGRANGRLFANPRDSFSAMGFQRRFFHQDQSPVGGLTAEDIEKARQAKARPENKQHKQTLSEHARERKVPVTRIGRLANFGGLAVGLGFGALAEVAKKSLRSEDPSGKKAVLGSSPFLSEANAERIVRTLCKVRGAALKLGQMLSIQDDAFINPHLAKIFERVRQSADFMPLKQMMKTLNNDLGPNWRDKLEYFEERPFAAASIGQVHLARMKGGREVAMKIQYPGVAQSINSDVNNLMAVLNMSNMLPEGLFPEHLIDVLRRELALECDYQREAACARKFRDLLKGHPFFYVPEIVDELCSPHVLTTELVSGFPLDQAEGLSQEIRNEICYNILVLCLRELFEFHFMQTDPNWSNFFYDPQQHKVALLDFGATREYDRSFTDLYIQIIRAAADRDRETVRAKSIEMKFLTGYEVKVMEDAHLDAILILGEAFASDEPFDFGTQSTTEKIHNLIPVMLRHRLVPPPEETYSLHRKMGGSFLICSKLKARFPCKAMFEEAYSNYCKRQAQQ
Procedure, shortened: as §1

EGFR(L861Q) = EGFR(L861Q) (Homo sapiens, UniProt P00533, L861Q)
Procedure, shortened: as §1

EGFR(L747-T751del,Sins) = EGFR(L747-T751del,Sins) (Homo sapiens, UniProt P00533, DEL747-750/T751S)
Procedure, shortened: as §1

FGR = FGR (Homo sapiens, UniProt P09769)
Procedure, shortened: as §1

PRKX = PRKX (Homo sapiens, UniProt P51817)
Procedure, shortened: as §1

MLCK = target: T4, MLCK (Homo sapiens, UniProt Q32MK0)
T4 construct: gene MYLK3
Procedure, shortened: as §1

MELK = MELK (Homo sapiens, UniProt Q14680)
Chain of MELK (Q14680 whole entry): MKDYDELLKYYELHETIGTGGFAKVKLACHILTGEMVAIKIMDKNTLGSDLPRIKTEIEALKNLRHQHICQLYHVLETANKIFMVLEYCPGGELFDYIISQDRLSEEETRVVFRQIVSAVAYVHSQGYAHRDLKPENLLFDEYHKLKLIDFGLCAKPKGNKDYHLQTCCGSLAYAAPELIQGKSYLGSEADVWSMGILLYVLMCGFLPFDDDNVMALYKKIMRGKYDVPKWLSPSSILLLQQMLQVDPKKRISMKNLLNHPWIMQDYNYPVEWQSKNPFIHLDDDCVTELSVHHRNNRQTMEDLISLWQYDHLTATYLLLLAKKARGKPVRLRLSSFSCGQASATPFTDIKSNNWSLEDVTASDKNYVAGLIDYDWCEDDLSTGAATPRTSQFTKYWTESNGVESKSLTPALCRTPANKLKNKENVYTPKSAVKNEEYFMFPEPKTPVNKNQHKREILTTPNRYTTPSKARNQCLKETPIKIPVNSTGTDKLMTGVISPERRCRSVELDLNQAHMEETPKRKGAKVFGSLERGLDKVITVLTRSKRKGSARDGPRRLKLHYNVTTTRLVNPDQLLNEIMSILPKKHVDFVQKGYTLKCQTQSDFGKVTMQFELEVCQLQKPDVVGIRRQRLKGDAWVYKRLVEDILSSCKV
Procedure, shortened: as §1

EGFR(L858R) = EGFR(L858R) (Homo sapiens, UniProt P00533, L858R)
Procedure, shortened: as §1

NEK4 = NEK4 (Homo sapiens, UniProt P51957)
Procedure, shortened: as §1

ERBB3 = ERBB3 (Homo sapiens, UniProt P21860)
Chain of ERBB3 (P21860 whole entry): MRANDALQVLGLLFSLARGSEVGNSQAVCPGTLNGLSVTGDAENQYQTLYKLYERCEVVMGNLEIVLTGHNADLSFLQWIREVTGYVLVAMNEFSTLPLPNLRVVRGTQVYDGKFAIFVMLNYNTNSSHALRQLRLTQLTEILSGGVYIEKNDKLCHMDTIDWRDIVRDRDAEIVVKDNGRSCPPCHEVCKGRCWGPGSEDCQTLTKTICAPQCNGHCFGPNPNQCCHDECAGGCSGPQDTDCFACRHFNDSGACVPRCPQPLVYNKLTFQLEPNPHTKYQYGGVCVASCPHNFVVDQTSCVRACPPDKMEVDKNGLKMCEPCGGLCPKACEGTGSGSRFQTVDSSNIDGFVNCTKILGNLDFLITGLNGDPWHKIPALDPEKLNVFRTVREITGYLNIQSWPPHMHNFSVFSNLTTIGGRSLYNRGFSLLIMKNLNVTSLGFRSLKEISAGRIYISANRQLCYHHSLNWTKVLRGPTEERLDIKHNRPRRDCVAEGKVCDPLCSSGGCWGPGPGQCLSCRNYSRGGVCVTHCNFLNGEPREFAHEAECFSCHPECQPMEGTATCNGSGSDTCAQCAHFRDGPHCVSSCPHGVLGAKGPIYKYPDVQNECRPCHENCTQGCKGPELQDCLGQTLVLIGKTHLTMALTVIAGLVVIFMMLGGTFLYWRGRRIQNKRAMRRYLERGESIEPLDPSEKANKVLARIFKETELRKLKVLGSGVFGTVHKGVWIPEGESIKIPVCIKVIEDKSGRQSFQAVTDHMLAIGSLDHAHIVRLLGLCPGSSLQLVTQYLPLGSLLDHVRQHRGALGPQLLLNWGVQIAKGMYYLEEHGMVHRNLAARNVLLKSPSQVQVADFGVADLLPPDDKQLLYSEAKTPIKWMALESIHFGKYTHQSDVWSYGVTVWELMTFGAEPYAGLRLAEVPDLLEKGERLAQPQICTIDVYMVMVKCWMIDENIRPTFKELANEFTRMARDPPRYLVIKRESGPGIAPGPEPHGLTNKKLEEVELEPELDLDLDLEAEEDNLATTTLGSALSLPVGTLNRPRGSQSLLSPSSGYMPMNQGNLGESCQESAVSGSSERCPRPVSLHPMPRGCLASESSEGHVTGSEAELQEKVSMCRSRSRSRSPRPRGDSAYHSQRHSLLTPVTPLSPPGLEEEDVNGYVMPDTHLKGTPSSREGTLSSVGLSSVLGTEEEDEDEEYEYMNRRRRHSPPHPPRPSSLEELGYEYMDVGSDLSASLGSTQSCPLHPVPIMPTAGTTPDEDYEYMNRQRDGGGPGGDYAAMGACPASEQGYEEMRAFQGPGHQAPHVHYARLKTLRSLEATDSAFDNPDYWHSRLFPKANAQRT
Procedure, shortened: as §1

SGK3 = SGK3 (Homo sapiens, UniProt Q96BR1)
Procedure, shortened: as §1

PIP5K2C = target: T5, PIP5K2C (Homo sapiens, UniProt Q8TBX8)
T5 construct: gene PIP4K2C
Procedure, shortened: as §1

KIT(V559D,T670I) = KIT(V559D,T670I) (Homo sapiens, UniProt P10721, T670I/V559D)
Procedure, shortened: as §1

MYLK2 = MYLK2 (Homo sapiens, UniProt Q9H1R3)
Procedure, shortened: as §1

EGFR(G719C) = EGFR(G719C) (Homo sapiens, UniProt P00533, G719C)
Procedure, shortened: as §1

LCK = LCK (Homo sapiens, UniProt P06239)
Procedure, shortened: as §1

MKNK1 = MKNK1 (Homo sapiens, UniProt Q9BUB5)
Procedure, shortened: as §1

Chain of ULK1 (O75385 whole entry): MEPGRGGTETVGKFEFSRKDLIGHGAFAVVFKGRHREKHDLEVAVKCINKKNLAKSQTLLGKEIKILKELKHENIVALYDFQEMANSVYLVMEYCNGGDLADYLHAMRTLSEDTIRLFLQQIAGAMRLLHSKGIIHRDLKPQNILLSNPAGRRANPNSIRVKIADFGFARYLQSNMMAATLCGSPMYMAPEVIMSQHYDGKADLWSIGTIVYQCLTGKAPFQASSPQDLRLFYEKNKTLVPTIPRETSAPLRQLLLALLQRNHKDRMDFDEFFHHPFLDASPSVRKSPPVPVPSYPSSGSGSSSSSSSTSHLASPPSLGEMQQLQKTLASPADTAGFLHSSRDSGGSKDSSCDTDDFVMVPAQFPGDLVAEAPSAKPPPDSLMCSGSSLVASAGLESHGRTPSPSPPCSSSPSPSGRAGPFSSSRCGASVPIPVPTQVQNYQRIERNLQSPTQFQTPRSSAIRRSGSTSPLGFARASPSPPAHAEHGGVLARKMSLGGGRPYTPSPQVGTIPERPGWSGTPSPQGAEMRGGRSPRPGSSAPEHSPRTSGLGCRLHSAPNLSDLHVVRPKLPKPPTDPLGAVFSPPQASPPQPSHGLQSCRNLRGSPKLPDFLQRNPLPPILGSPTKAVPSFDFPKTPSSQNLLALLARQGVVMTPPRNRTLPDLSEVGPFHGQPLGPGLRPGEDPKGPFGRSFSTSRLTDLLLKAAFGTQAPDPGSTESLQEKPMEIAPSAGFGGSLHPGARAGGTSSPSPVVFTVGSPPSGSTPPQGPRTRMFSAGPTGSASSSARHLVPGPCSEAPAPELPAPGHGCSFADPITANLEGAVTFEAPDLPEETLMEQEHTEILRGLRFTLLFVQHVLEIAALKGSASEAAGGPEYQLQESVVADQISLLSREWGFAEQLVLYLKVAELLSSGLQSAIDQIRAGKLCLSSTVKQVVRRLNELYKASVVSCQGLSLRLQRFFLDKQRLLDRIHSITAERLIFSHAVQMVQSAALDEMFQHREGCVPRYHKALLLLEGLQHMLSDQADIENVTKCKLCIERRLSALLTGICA

inhibition at 1 µM (ULK1): 31%
inhibition at 1 µM (YSK1): 13%
inhibition at 1 µM [1]: 30%
inhibition at 1 µM (FLT3(ITD,F691L)): 0%
inhibition at 1 µM (FGFR3(G697C)): 0%
inhibition at 1 µM (HIPK4): 0%
inhibition at 1 µM (ADCK3): 9%
inhibition at 1 µM (EGFR(L861Q)): 0%
inhibition at 1 µM (EGFR(L747-T751del,Sins)): 0%
inhibition at 1 µM (FGR): 0%
inhibition at 1 µM (PRKX): 0%
inhibition at 1 µM (MLCK): 4%
inhibition at 1 µM (MELK): 0%
inhibition at 1 µM (EGFR(L858R)): 4%
inhibition at 1 µM (NEK4): 13%
inhibition at 1 µM (ERBB3): 16%
inhibition at 1 µM (SGK3): 19%
inhibition at 1 µM (PIP5K2C): 18%
inhibition at 1 µM (KIT(V559D,T670I)): 0%
inhibition at 1 µM (MYLK2): 3%
inhibition at 1 µM (EGFR(G719C)): 0%
inhibition at 1 µM (LCK): 0%
inhibition at 1 µM (MKNK1): 4%
SMILES: CNS(=O)(=O)c1ccc(N(C)C)c(Nc2nc(C)nc3cc(OC)c(OC)cc23)c1 [compound 15, 3-((6,7-dimethoxy-2-methylquinazolin-4-yl)amino)-4-(dimethylamino)-N-methylbenzenesulfonamide]
